Series [1] deals with T1, Oxysterols receptor LXR-beta (Homo sapiens, UniProt P55055).
T1 sequence (P55055 whole entry): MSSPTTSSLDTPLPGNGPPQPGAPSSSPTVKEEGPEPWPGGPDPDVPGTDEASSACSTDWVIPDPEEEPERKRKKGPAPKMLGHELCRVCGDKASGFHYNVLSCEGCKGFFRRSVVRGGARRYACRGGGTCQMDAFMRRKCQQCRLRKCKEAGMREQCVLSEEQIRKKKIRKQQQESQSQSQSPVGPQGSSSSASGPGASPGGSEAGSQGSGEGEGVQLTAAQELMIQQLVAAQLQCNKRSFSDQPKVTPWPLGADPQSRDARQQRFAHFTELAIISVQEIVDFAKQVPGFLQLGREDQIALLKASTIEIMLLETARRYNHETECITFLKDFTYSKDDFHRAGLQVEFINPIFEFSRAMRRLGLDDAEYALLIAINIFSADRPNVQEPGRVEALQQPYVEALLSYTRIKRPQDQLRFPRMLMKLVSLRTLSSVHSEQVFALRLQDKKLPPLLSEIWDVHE
The series is classed as functional, cell-based, CHO.

For series [2], the target named is T2, Oxysterols receptor LXR-alpha (Homo sapiens, UniProt Q13133).
T2 sequence (Q13133 whole entry): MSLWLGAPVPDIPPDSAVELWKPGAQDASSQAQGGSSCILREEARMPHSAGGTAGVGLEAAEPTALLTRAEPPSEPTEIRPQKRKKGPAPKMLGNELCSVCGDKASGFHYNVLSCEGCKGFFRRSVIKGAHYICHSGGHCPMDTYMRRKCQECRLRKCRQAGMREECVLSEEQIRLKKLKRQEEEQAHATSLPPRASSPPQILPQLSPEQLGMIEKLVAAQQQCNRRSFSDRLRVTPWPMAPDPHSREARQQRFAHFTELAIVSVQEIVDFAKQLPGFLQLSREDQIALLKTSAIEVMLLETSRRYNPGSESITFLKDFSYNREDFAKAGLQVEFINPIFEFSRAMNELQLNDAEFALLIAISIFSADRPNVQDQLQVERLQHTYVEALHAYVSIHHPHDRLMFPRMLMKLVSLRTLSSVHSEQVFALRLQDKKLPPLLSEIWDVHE
The series is classed as functional, cell-based, CHO.

Series [3] addresses T1, Oxysterols receptor LXR-beta.
Series [4] has as its target T3, Peroxisome proliferator-activated receptor delta (Homo sapiens, UniProt Q03181).
T3 sequence (Q03181 whole entry): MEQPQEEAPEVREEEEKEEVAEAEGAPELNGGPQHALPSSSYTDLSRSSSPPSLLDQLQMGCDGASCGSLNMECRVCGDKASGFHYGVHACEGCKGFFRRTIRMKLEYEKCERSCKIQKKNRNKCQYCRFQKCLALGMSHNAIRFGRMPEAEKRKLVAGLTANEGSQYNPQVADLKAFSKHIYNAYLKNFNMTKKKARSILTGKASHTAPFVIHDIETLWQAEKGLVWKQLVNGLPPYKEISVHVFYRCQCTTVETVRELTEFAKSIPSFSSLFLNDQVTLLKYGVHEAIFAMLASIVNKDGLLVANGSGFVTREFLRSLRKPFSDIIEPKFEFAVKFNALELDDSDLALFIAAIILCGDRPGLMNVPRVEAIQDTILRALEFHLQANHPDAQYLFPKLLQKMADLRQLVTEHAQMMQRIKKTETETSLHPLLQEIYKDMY

Series [5] has as its target T2, Oxysterols receptor LXR-alpha.
For series [6], the target named is T4, Peroxisome proliferator-activated receptor alpha (Homo sapiens, UniProt Q07869).
T4 sequence (Q07869 whole entry): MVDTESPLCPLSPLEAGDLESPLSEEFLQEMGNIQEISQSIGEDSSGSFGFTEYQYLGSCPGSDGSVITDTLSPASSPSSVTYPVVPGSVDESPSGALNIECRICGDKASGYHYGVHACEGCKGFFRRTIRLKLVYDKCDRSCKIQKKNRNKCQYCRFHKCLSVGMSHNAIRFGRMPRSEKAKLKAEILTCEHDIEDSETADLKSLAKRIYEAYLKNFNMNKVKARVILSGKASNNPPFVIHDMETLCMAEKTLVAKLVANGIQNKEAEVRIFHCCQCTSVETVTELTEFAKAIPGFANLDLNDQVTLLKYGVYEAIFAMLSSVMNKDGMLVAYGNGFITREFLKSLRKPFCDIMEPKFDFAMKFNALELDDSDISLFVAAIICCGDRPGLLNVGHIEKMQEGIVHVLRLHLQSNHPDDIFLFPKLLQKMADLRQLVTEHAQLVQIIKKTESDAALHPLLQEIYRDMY

Series [7] is described as follows: in vivo. The conditions noted are these: mouse, iv, 0.5 mg/kg.
A short description of series [8]: in vivo. The conditions noted are these: mouse, iv, 0.5 mg/kg. The source holds these as a separate data set.
For series [9], the species on record is Mus musculus. The conditions noted are these: in vivo.
Series [10] in a line: in vivo. The conditions noted are these: mouse.

Consider `CCCc1c(OCCCN(C)c2ccc(CC(=O)O)c(Cl)c2)ccc2c(C(F)(F)F)noc12`, for which the EC50 in [1] amounted to 124 nM; in [2], 170 nM. In addition, the values for the IC50 in [3], in [4] and in [5] were 10 nM, 1400 nM and 12 nM, respectively.

Regarding `CCCc1c(OCCCn2ccc3cc(CCC(=O)O)ccc32)ccc2c(C(F)(F)F)noc12`, the values for the EC50 in series [1] and in series [2] were 700 nM and 820 nM, respectively. In addition, the IC50 in [3] was 6 nM; in series [4] it was 70 nM; in [6] it was 450 nM; in series [5], 18 nM.

In series [1], `CCCc1c(OCCCOc2ccc(CC(=O)O)cc2Cl)ccc2c(C(F)(F)F)noc12` had an EC50 of 9700 nM. The half-maximal inhibitory concentration (IC50) amounted to 65 nM in series [3], 230 nM in series [6] and 39 nM in series [5].

Consider `CCCc1c(OCCCN(C)c2ccc(C(=O)O)cc2)ccc2c(C(F)(F)F)noc12`, for which the EC50 in series [1] was 5100 nM; in [2], 6000 nM. Moreover, the concentration for half-maximal inhibition (IC50) in series [3] was determined as 190 nM; in series [5] it was 79 nM.

Turning to `CCCc1c(OCCCn2nnc3cc(CC(=O)O)ccc32)ccc2c(C(F)(F)F)noc12`, the values for the 50% effective concentration (EC50) in series [1] and in series [2] were 1700 nM and 2300 nM, respectively. Besides, the IC50 in series [3] was 350 nM; in series [6] it was 4400 nM; in [5], 410 nM.

In the case of `CCCc1c(OCCCN(C)c2ccc(CC(=O)O)cc2C)ccc2c(C(F)(F)F)noc12`, the IC50 in series [3] came to 320 nM; in series [6], 600 nM; in [5], 580 nM.

As to `CCCc1c(OCCCN(C)c2ncc(CC(=O)O)cn2)ccc2c(C(F)(F)F)noc12`, the EC50 was determined as 470 nM in series [1] and 620 nM in [2]. Also, the IC50 in series [3] came out at 55 nM; in series [5], 26 nM.

On to `CCCc1c(OCCCn2ccc3cc(C(=O)O)ccc32)ccc2c(C(F)(F)F)noc12`, for which the concentration for a half-maximal effect (EC50) came to 2800 nM in series [1] and 1900 nM in [2]. Besides, the values for the IC50 in [3], in series [6] and in series [5] were 199 nM, 8300 nM and 72 nM, respectively.

`CCCc1c(OCCCCc2ccc(CC(=O)O)cc2)ccc2c(C(F)(F)F)noc12`: the IC50 in series [3] came to 970 nM; in series [5] it was 530 nM.

Turning to `CCCc1c(OCCCN(C)c2cccc(CC(=O)O)c2)ccc2c(C(F)(F)F)noc12`, the 50% effective concentration (EC50) in series [1] worked out at 3500 nM; in series [2], 2600 nM. Moreover, the concentration for half-maximal inhibition (IC50) was determined as 98 nM in series [3], 93 nM in [4], 1500 nM in series [6] and 102 nM in [5].

The molecule `O=C(O)Cc1cccc(OCCCN(Cc2cccc(C(F)(F)F)c2Cl)CC(c2ccccc2)c2ccccc2)c1` showed a clearance in series [7] of 8 mL/min/kg. Besides, the volume of distribution (Vd) in [8] turned out to be 1.2 L/kg. Moreover, the AUC in series [9] came to 2 µM·kg·h/mg. In [10], the half-life was 3.4 h.

Turning to `CCCc1c(OCCCN(C)c2ccc(CC(=O)O)cc2)ccc2c(C(F)(F)F)noc12`, the values for the EC50 in series [1] and in series [2] were 360 nM and 450 nM, respectively. For the same molecule, the IC50 stood at 25 nM in series [3], 310 nM in series [4], 310 nM in [6] and 18 nM in series [5].

Turning to `CCCc1c(OCCCOc2ccc(CC(=O)O)cc2)ccc2c(C(F)(F)F)noc12`, the half-maximal inhibitory concentration (IC50) was 100 nM in [3], 8 nM in series [4], 19 nM in series [6] and 730 nM in [5].

`CCCc1c(OCCCN(C)c2ncc(CC(=O)O)s2)ccc2c(C(F)(F)F)noc12` displayed a clearance in [7] of 13 mL/min/kg. The results for the half-maximal effective concentration (EC50) in [1] and in series [2] were 650 nM and 1100 nM, respectively. The IC50 is 100 nM in [3] and 67 nM in series [5]. In series [8], the volume of distribution (Vd) was 1.2 L/kg. In series [9], this molecule displayed an AUC of 3.1 µM·kg·h/mg. In [10], this molecule gave a half-life of 1.2 h.

Turning to `CCCc1c(OCCCN2C(=O)Cc3cc(C(=O)O)ccc32)ccc2c(C(F)(F)F)noc12`, the EC50 in series [1] came to 4400 nM; in [2], 3000 nM. Further, the IC50 in series [3] amounted to 700 nM; in series [5], 97 nM.

Molecule `CCCc1c(OCCCN(C(C)=O)c2ccc(CC(=O)O)cc2)ccc2c(C(F)(F)F)noc12` displayed an IC50 in series [5] of 6400 nM.

Consider `CCCc1c(OCCCn2ncc3cc(CC(=O)O)ccc32)ccc2c(C(F)(F)F)noc12`, for which the EC50 in series [1] stood at 580 nM; in series [2], 480 nM. The IC50 was 87 nM in series [3], 780 nM in [6] and 73 nM in series [5].

Regarding `CCCc1c(OCCCN(C)c2ccccc2)ccc2c(C(F)(F)F)noc12`, the IC50 in series [3] came out at 428 nM; in series [5], 372 nM.

For the molecule `CCCc1c(OCCCN(C=O)c2ccc(CC(=O)O)cc2)ccc2c(C(F)(F)F)noc12`, the IC50 in series [5] amounted to 6400 nM. In other words, the single-digit micromolar range.

With `CCCc1c(OCCCN(C)c2ccc(CC(=O)O)cc2Cl)ccc2c(C(F)(F)F)noc12`, the results for the IC50 in series [3], in [4] and in series [5] were 170 nM, 49 nM and 630 nM, respectively.

In the case of `CCCc1c(OCCCN(C)c2ccc(CC(=O)O)c(C)c2)ccc2c(C(F)(F)F)noc12`, the values for the half-maximal effective concentration (EC50) in series [1] and in [2] were 303 nM and 1300 nM, respectively. In addition, the IC50 was 26 nM in [3], 150 nM in [4], 870 nM in series [6] and 117 nM in series [5].

Take `CCCc1c(OCCCN(C)c2cnc(CC(=O)O)cn2)ccc2c(C(F)(F)F)noc12`: the clearance in [7] was found to be 17 mL/min/kg. The EC50 in [1] was 150 nM; in series [2], 540 nM. Moreover, the IC50 came to 40 nM in series [3] and 90 nM in [5]. The Vd in series [8] was 2.8 L/kg. In series [9], this molecule came in with an AUC of 7.5 µM·kg·h/mg. The molecule further gave a half-life in [10] of 2.1 h.

`CCCc1c(OCCCN(C)c2ccc(CC(=O)O)c(C(F)(F)F)c2)ccc2c(C(F)(F)F)noc12`: the concentration for a half-maximal effect (EC50) turned out to be 1300 nM in [1] and 3600 nM in series [2]. The IC50 in series [3] came to 18 nM; in [4], 540 nM; in series [6], 140 nM; in [5] it was 60 nM.

Turning to `CCCc1c(OCCCSc2ccc(CC(=O)O)cc2Cl)ccc2c(C(F)(F)F)noc12`, the midpoint of the response in series [2], the EC50, lay at 5900 nM. Besides, the IC50 in [4] was 4 nM; in series [6], 280 nM; in series [5], 32 nM.

Molecule `CCCc1c(OCCCN(C)c2ccc(CC(=O)O)cn2)ccc2c(C(F)(F)F)noc12` displayed a 50% effective concentration (EC50) in series [2] of 5000 nM. Besides, the IC50 was found to be 630 nM in series [3] and 105 nM in series [5].

For `CCCc1c(OCCCNc2ccc(CC(=O)O)cc2)ccc2c(C(F)(F)F)noc12`, the 50% effective concentration (EC50) in series [1] was 7700 nM; in series [2] it was 8000 nM. Besides, the IC50 was 89 nM in [3], 88 nM in series [4], 16 nM in series [6] and 68 nM in [5].

As to `CCCc1c(OCCCN(CC)c2ccc(CC(=O)O)cc2)ccc2c(C(F)(F)F)noc12`, the IC50 is 140 nM in [3], 8600 nM in series [4], 2600 nM in series [6] and 110 nM in [5].

`CCCc1c(OCCCn2cnc3cc(CC(=O)O)ccc32)ccc2c(C(F)(F)F)noc12` returned an EC50 in [1] of 8600 nM. Also, the IC50 in series [3] came to 410 nM; in [4] it was 1800 nM; in [5] it was 180 nM.

Broadly, the EC50 is the concentration that produces a half-maximal response. Read a high EC50 as a need for much substance. The term IC50 denotes the concentration at which inhibition is half-maximal. Read a high IC50 as lower potency. What is called clearance is the rate of elimination divided by the concentration. A word on the Vd: it is a proportionality between amount in the body and measured concentration, not a real space. Higher therefore signals extensive tissue distribution. As a reminder, the half-life is the time needed for the level to fall by half in the phase considered. High values mean slow decline, low ones rapid decline.

The values above are taken from ChEMBL document CHEMBL1148661, “SAR studies: designing potent and selective LXR agonists” (Bioorg Med Chem Lett, 2006).
